System: β-catenin-TCF-mediated reporter transcription activity in Colo 205 cells
Assay: Colo 205 reporter assay (TCF/LEF luciferase)
Assay type: cell-based
Details: Colo 205 TCF/LEF luciferase reporter, five hours after addition of compound; read-out: TCF reporter Colo205 IC50
Method in brief: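 Luciferase signal from a TCF/LEF-driven reporter, stably integrated in Colo 205 colon cancer cells, was measured 5 h after compound addition.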

Molecule | IC50 [nM]
COCC1(C)C(=O)Nc2c(C)nc(NC3CN(C(=O)c4cc(F)c(F)c(F)c4)C3)nc2N1C (stereo not shown) [Compound 722, 7-(methoxymethyl)-4,7,8-trimethyl-2-((1-(3,4,5-trifluorobenzoyl)azetidin-3-yl)amino)-7,8-dihydropteridin-6(5H)-one] | 1000 to 5000
(7S)-4,5,7,8-tetramethyl-2-((trans-3-(3,4,5-trifluorophenoxy)cyclopentyl)amino)-7,8-dihydropteridin-6(5H)-one [Compound 269] | < 300

Same assay, conditions: Homo sapiens, COLO 205, 5 h, Colo 205 TCF/LEF luciferase reporter, five hours after addition of compound; read-out: TCF reporter Colo205 IC50

Molecule | IC50 [nM]
Cc1nc(NCc2cnn(Cc3ccc(Cl)nc3)c2)nc2c1NC(=O)[C@H](C1CCC1)N2C [Compound 566, (7S)-2-(((1-((6-chloropyridin-3-yl)methyl)-1H-pyrazol-4-yl)methyl)amino)-7-cyclobutyl-4,8-dimethyl-7,8-dihydropteridin-6(5H)-one] | < 300
Cc1nc(NCc2cnn(Cc3cc(C(F)(F)F)ccn3)c2)nc2c1NC(=O)[C@H](C)N2C [Compound 201, (7S)-4,7,8-trimethyl-2-(((1-((4-(trifluoromethyl)pyridin-2-yl)methyl)-1H-pyrazol-4-yl)methyl)amino)-7,8-dihydropteridin-6(5H)-one] | 300 to 1000
Cc1nc(N[C@H]2C[C@H](Sc3ccc(F)cc3)C2)nc2c1NC(=O)[C@H](C)N2C [Compound 303, (7S)-2-((trans-3-((4-fluorophenyl)thio)cyclobutyl)amino)-4,7,8-trimethyl-7,8-dihydropteridin-6(5H)-one] | 300 to 1000
Cc1nc(NCc2cnn(CCCc3ccc(C(F)(F)F)nc3)c2)nc2c1NC(=O)[C@H](C)N2C [Compound 492, (S)-4,7,8-trimethyl-2-(((1-(3-(6-(trifluoromethyl)pyridin-3-yl)propyl)-1H-pyrazol-4-yl)methyl)amino)-7,8-dihydropteridin-6(5H)-one] | 300 to 1000
Cc1nc(NC2CN(C(=O)c3csc(C(F)(F)F)n3)C2)nc2c1NC(=O)[C@H](C(C)C)N2C [Compound 613, (S)-7-isopropyl-4,8-dimethyl-2-((1-(2-(trifluoromethyl)thiazole-4-carbonyl)azetidin-3-yl)amino)-7,8-dihydropteridin-6(5H)-one] | 300 to 1000
Cc1nc(N[C@@H]2CC[C@H](Nc3cnc(C(F)(F)F)cn3)C2)nc2c1NC(=O)[C@H](C(C)C)N2C [Compound 735, (S)-7-isopropyl-4,8-dimethyl-2-(((1R,3S)-3-((5-(trifluoromethyl)pyrazin-2-yl)amino)cyclopentyl)amino)-7,8-dihydropteridin-6(5H)-one] | < 300
Cc1nc(N[C@@H]2CO[C@H](COc3cc(F)c(F)c(F)c3)C2)nc2c1NC(=O)[C@H](C)N2C [Compound 308, (7S)-4,7,8-trimethyl-2-(((3S,5S)-5-((3,4,5-trifluorophenoxy)methyl)tetrahydrofuran-3-yl)amino)-7,8-dihydropteridin-6(5H)-one] | 1000 to 5000
COc1ccc(O[C@H]2C[C@H](Nc3nc(C)c4c(n3)N(C)[C@@H](C)C(=O)N4C)C2)cc1F [Compound 351, (7S)-2-((trans-3-(3-fluoro-4-methoxyphenoxy)cyclobutyl)amino)-4,5,7,8-tetramethyl-7,8-dihydropteridin-6(5H)-one] | 1000 to 5000
COc1ncc(Cn2cc(CNc3nc(C)c4c(n3)N(C)[C@@H](C)C(=O)N4)cn2)cc1C(F)(F)F [Compound 215, (7S)-2-(((1-((6-methoxy-5-(trifluoromethyl)pyridin-3-yl)methyl)-1H-pyrazol-4-yl)methyl)amino)-4,7,8-trimethyl-7,8-dihydropteridin-6(5H)-one] | < 300
Cc1nc(NCc2ccnc(N3CCCCC3)c2)nc2c1NC(=O)[C@H](C)N2C [Compound 60, (S)-4,7,8-trimethyl-2-(((2-(piperidin-1-yl)pyridin-4-yl)methyl)amino)-7,8-dihydropteridin-6(5H)-one] | ≥ 5000
CCN1C(=O)[C@H](CCO)N(CC)c2nc(NCc3cnn(Cc4ccc(F)cc4)c3)ncc21 [Compound 38, (7S)-5,8-diethyl-2-(((1-(4-fluorobenzyl)-1H-pyrazol-4-yl)methyl)amino)-7-(2-hydroxyethyl)-7,8-dihydropteridin-6(5H)-one] | < 300
Cc1nc(N[C@H]2C[C@@H](Nc3nccc(C(F)(F)F)n3)C2)nc2c1NC(=O)[C@H](C(C)C)N2C [Compound 527, (S)-7-isopropyl-4,8-dimethyl-2-((cis-3-((4-(trifluoromethyl)pyrimidin-2-yl)amino)cyclobutyl)amino)-7,8-dihydropteridin-6(5H)-one] | 300 to 1000
CCN1C(=O)C2(CC2)N(CC)c2nc(NCc3cnn(Cc4cc(F)c(F)c(F)c4)c3)ncc21 [Compound 233, 5′,8′-diethyl-2′-(((1-(3,4,5-trifluorobenzyl)-1H-pyrazol-4-yl)methyl)amino)-5′,8′-dihydro-6′H-spiro[cyclopropane-1,7′-pteridin]-6′-one] | < 300
Cc1nc(NC2CN(C(=O)[C@@H](C)c3ccccc3)C2)nc2c1NC(=O)[C@H](C(C)C)N2C [Compound 641, (S)-7-isopropyl-4,8-dimethyl-2-((1-((S)-2-phenylpropanoyl)azetidin-3-yl)amino)-7,8-dihydropteridin-6(5H)-one] | ≥ 5000
[2H]C([2H])(O)c1nc(NCc2cnn(Cc3ccc(C(F)(F)F)nc3)c2)nc2c1NC(=O)[C@H](C)N2C [Compound 493, (7S)-4-(hydroxymethyl-d2)-7,8-dimethyl-2-(((1-((6-(trifluoromethyl)pyridin-3-yl)methyl)-1H-pyrazol-4-yl)methyl)amino)-7,8-dihydropteridin-6(5H)-one] | 1000 to 5000
Cc1nc(NCc2cnn(Cc3ccc(C(F)(F)F)nc3)c2)nc2c1NC(=O)[C@H]([C@H](C)OC(C)(C)C)N2C [Compound 742, (S)-7-((S)-1-(tert-butoxy)ethyl)-4,8-dimethyl-2-(((1-((6-(trifluoromethyl)pyridin-3-yl)methyl)-1H-pyrazol-4-yl)methyl)amino)-7,8-dihydropteridin-6(5H)-one] | 1000 to 5000
CCN1C(=O)[C@H](C)N(CC)c2nc(NCc3cnn(Cc4cc(F)c(F)c(F)c4)c3)ncc21 [Compound 31, (7S)-5,8-diethyl-7-methyl-2-(((1-(3,4,5-trifluorobenzyl)-1H-pyrazol-4-yl)methyl)amino)-7,8-dihydropteridin-6(5H)-one] | < 300
Cc1nc(N[C@H]2C[C@@H](COc3ccc(Cl)nc3)C2)nc2c1NC(=O)[C@H](C(C)C)N2C [Compound 570, (S)-2-((cis-3-(((6-chloropyridin-3-yl)oxy)methyl)cyclobutyl)amino)-7-isopropyl-4,8-dimethyl-7,8-dihydropteridin-6(5H)-one] | < 300
CCOc1ccc(CCn2cc(CNc3nc(C)c4c(n3)N(C)[C@@H](C)C(=O)N4)cn2)cc1 [Compound 108, (7S)-2-(((1-(4-ethoxyphenethyl)-1H-pyrazol-4-yl)methyl)amino)-4,7,8-trimethyl-7,8-dihydropteridin-6(5H)-one] | 300 to 1000
Cc1nc(NCc2cnn(Cc3ccc(C(F)(F)F)nc3)c2)nc2c1NC(=O)[C@H](CO)N2C [Compound 604, (S)-7-(hydroxymethyl)-4,8-dimethyl-2-(((1-((6-(trifluoromethyl)pyridin-3-yl)methyl)-1H-pyrazol-4-yl)methyl)amino)-7,8-dihydropteridin-6(5H)-one] | 1000 to 5000
Cc1nc(N[C@H]2C[C@@H](NC(=O)Nc3ccc(F)cc3)C2)nc2c1NC(=O)[C@H](C)N2C [Compound 458, 1-(4-fluorophenyl)-3-(cis-3-(((S)-4,7,8-trimethyl-6-oxo-5,6,7,8-tetrahydropteridin-2-yl)amino)cyclobutyl)urea] | 300 to 1000
COC1(C2C(=O)Nc3c(C)nc(N[C@H]4C[C@H](Oc5cc(F)c(F)c(F)c5)C4)nc3N2C)CCC1 (relative stereo) [Compound 667, 7-(1-methoxycyclobutyl)-4,8-dimethyl-2-((trans-3-(3,4,5-trifluorophenoxy)cyclobutyl)amino)-7,8-dihydropteridin-6(5H)-one] | < 300
CO[C@H](C)[C@H]1C(=O)Nc2c(C)nc(NCc3cnn(Cc4cc(F)c(F)c(F)c4)c3)nc2N1C [Compound 659, (S)-7-((R)-1-methoxyethyl)-4,8-dimethyl-2-(((1-(3,4,5-trifluorobenzyl)-1H-pyrazol-4-yl)methyl)amino)-7,8-dihydropteridin-6(5H)-one] | < 300
Cc1nc(N[C@H]2C[C@H](Oc3cncc(F)c3)C2)nc2c1NC(=O)[C@H](C)N2C [Compound 262, (7S)-2-((trans-3-((5-fluoropyridin-3-yl)oxy)cyclobutyl)amino)-4,7,8-trimethyl-7,8-dihydropteridin-6(5H)-one] | 1000 to 5000
Cc1nc(NC2CN(C(=O)Cn3ccc(C(F)(F)F)n3)C2)nc2c1NC(=O)[C@H](C(C)C)N2C [Compound 595, (S)-7-isopropyl-4,8-dimethyl-2-((1-(2-(3-(trifluoromethyl)-1H-pyrazol-1-yl)acetyl)azetidin-3-yl)amino)-7,8-dihydropteridin-6(5H)-one] | 300 to 1000
Cc1nc(NC2CN(C(=O)c3cc(C(F)(F)F)nn3C)C2)nc2c1NC(=O)[C@H](C(C)C)N2C [Compound 596, (S)-7-isopropyl-4,8-dimethyl-2-((1-(1-methyl-3-(trifluoromethyl)-1H-pyrazole-5-carbonyl)azetidin-3-yl)amino)-7,8-dihydropteridin-6(5H)-one] | < 300
CC[C@H]1C(=O)Nc2c(C)nc(NCc3cnn(Cc4ccc(Cl)nc4)c3)nc2N1C [Compound 432, (7S)-2-(((1-((6-chloropyridin-3-yl)methyl)-1H-pyrazol-4-yl)methyl)amino)-7-ethyl-4,8-dimethyl-7,8-dihydropteridin-6(5H)-one] | < 300

Same assay, conditions: Homo sapiens, COLO 205, 5 h, R-isomer at C2 (corresponding to C2 S-isomer); Colo 205 TCF/LEF luciferase reporter, 5 h; read-out: TCF reporter Colo205 IC50

Molecule | IC50 [nM]
CCN1c2nc(NCc3cnn(Cc4ccc(F)cc4)c3)ncc2N(C)C(=O)[C@H]1C [Compound I-860] | < 300
CC[C@@H]1C(=O)Nc2c(C)nc(NCc3cnn(Cc4ccc(C(F)(F)F)nc4)c3)nc2N1C [Compound I-1635] | 1000 to 5000

Source: patent US20230312587A1, “PTERIDINONE COMPOUNDS AND USES THEREOF” (Vertex Pharmaceutical Incorporated, priority 2018, published 2023)
